ChEMBL document CHEMBL4304804, “Synthesis and biological evaluation of calycanthaceous alkaloid analogs” (Bioorg Med Chem, 2019)
≈ marks a conversion by molar mass, not a printed value. Calls of active or inactive are those of the source. The calls are words filed in the database; no cut-off is given here.

Experiments:
Bacillus cereus = assay: Antibacterial activity against Bacillus cereus assessed as reduction in bacterial cell growth incubated for 24 hrs by filter paper assay; assay type: functional
Penicillium citrinum = assay: Antifungal activity against Penicillium citrinum assessed as reduction in fungal cell growth incubated for 48 hrs by serial dilution method; assay type: functional
Ralstonia solanacearum [1] = assay: Antibacterial activity against Ralstonia solanacearum assessed as reduction in bacterial cell growth incubated for 24 hrs by filter paper assay; assay type: functional
Acetylcholinesterase = Acetylcholinesterase (Electrophorus electricus, UniProt O42275); assay: Inhibition of electric eel AChE by Ellman's colorimetry
Aspergillus niger = assay: Antifungal activity against Aspergillus niger assessed as reduction in fungal cell growth incubated for 48 hrs by serial dilution method; assay type: functional
Candida tropicalis = assay: Antifungal activity against Candida tropicalis assessed as reduction in fungal cell growth incubated for 48 hrs by serial dilution method; assay type: functional
Cytospora = assay: Antifungal activity against Cytospora juglandis assessed as reduction in fungal cell growth incubated for 48 hrs by serial dilution method; assay type: functional
Staphylococcus aureus = assay: Antibacterial activity against Staphylococcus aureus assessed as reduction in bacterial cell growth incubated for 24 hrs by filter paper assay; assay type: functional
Verticillium dahliae [2] = assay: Antifungal activity against Verticillium dahliae assessed as reduction in fungal cell growth incubated for 48 hrs by serial dilution method; assay type: functional
[3] = tested on: Colletotrichum orbiculare; assay: Antifungal activity against Colletotrichum orbiculare assessed as reduction in fungal cell growth incubated for 48 hrs by serial dilution method; assay type: functional
[4] = target: Acetylcholinesterase (Electrophorus electricus) (UniProt O42275); assay: Inhibition of electric eel AChE by at 1 mg/ml Ellman's colorimetry relative to control
Fusarium oxysporum = assay: Antifungal activity against Fusarium oxysporum assessed as reduction in fungal cell growth incubated for 48 hrs by serial dilution method; assay type: functional
Cryptococcus neoformans = assay: Antifungal activity against Cryptococcus neoformans assessed as reduction in fungal cell growth incubated for 48 hrs by serial dilution method; assay type: functional
[5] = tested on: Fusarium oxysporum f. sp. vasinfectum; assay: Antifungal activity against Fusarium oxysporum sp. vasinfectum assessed as reduction in fungal cell growth incubated for 48 hrs by serial dilution method; assay type: functional
Escherichia coli = assay: Antibacterial activity against Escherichia coli assessed as reduction in bacterial cell growth incubated for 24 hrs by filter paper assay; assay type: functional
Curvularia lunata [6] = assay: Antifungal activity against Curvularia lunata assessed as reduction in fungal spore germination at 125 ug/ml relative to control; assay type: functional
Candida [7] = assay: Antifungal activity against […] assessed as reduction in fungal cell growth incubated for 48 hrs by serial dilution method; assay type: functional
Aspergillus flavus = assay: Antifungal activity against Aspergillus flavus assessed as reduction in fungal cell growth incubated for 48 hrs by serial dilution method; assay type: functional
Pseudomonas aeruginosa = assay: Antibacterial activity against Pseudomonas aeruginosa assessed as reduction in bacterial cell growth incubated for 24 hrs by filter paper assay; assay type: functional
Curvularia lunata [8] = assay: Antifungal activity against Curvularia lunata assessed as reduction in fungal cell growth incubated for 48 hrs by serial dilution method; assay type: functional
Ralstonia solanacearum [9] = assay: Antibacterial activity against Ralstonia solanacearum assessed as reduction in bacterial cell growth at 500 ug/ml incubated for 24 hrs by filter paper assay relative to control; assay type: functional
Verticillium dahliae [10] = assay: Antifungal activity against Verticillium dahliae assessed as reduction in fungal cell growth at 31.25 ug/ml incubated for 48 hrs by serial dilution method relative to control; assay type: functional
Verticillium dahliae [11] = assay: Antifungal activity against Verticillium dahliae assessed as reduction in fungal cell growth at 125 ug/ml incubated for 48 hrs by serial dilution method relative to control; assay type: functional
Verticillium dahliae [12] = assay: Antifungal activity against Verticillium dahliae assessed as reduction in fungal cell growth at 250 ug/ml incubated for 48 hrs by serial dilution method relative to control; assay type: functional
Verticillium dahliae [13] = assay: Antifungal activity against Verticillium dahliae assessed as reduction in fungal cell growth at 62.5 ug/ml incubated for 48 hrs by serial dilution method relative to control; assay type: functional
Curvularia lunata [14] = assay: Antifungal activity against Curvularia lunata assessed as reduction in fungal spore germination at 250 ug/ml relative to control; assay type: functional
Curvularia lunata [15] = assay: Antifungal activity against Curvularia lunata assessed as reduction in fungal cell growth at 62.5 ug/ml incubated for 48 hrs by serial dilution method relative to control; assay type: functional
Curvularia lunata [16] = assay: Antifungal activity against Curvularia lunata assessed as reduction in fungal cell growth at 250 ug/ml incubated for 48 hrs by serial dilution method relative to control; assay type: functional
Curvularia lunata [17] = assay: Antifungal activity against Curvularia lunata assessed as reduction in fungal cell growth at 125 ug/ml incubated for 48 hrs by serial dilution method relative to control; assay type: functional
Candida [18] = assay: Antifungal activity against […] assessed as reduction in fungal spore germination at 500 ug/ml relative to control; assay type: functional

Sequence of Acetylcholinesterase (Electrophorus electricus) (O42275 24-633 limits assumed): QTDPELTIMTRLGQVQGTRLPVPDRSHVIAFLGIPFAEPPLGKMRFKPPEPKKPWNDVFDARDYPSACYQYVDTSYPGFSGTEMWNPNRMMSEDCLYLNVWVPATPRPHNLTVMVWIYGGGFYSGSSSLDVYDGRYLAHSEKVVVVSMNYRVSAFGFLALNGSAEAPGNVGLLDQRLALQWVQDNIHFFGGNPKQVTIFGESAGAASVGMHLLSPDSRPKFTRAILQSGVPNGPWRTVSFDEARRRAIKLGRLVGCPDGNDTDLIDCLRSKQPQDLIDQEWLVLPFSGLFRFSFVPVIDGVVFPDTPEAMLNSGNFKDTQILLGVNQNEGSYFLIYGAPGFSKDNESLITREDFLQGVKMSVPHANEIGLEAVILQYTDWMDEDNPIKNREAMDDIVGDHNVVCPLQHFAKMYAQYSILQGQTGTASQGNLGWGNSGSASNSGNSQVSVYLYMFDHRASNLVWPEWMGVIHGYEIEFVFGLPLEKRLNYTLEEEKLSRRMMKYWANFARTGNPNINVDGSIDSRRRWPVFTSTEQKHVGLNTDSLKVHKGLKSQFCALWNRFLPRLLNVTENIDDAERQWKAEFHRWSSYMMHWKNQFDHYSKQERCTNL
Sequence of Acetylcholinesterase (O42275 whole entry): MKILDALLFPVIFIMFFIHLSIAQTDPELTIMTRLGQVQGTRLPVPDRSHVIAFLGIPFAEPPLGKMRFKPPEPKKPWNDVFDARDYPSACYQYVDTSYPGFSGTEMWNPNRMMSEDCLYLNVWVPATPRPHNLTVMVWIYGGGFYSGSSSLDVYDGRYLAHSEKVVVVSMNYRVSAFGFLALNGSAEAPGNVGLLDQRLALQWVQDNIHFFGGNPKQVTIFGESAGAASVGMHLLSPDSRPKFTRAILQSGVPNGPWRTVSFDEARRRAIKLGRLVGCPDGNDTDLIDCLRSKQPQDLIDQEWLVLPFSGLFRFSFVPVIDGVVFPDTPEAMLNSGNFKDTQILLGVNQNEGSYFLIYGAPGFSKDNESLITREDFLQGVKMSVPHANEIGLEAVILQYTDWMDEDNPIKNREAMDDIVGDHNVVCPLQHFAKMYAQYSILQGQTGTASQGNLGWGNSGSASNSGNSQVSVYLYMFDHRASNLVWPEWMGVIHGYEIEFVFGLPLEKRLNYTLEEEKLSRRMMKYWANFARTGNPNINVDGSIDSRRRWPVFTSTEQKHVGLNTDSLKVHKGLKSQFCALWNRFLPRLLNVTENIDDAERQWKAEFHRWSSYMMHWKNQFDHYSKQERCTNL

SMILES | MIC (Bacillus cereus) | MIC (Penicillium citrinum) | MIC (Ralstonia solanacearum [1]) | IC50 (Acetylcholinesterase) [nM] | MIC (Aspergillus niger) | MIC (Candida tropicalis) | MIC (Cytospora) | MIC (Staphylococcus aureus) | MIC (Verticillium dahliae [2]) | MIC [3] | inhibition [4] [%] | MIC (Fusarium oxysporum) | MIC (Cryptococcus neoformans) | MIC [5] | MIC (Escherichia coli) | MIC (Candida [7]) | MIC (Aspergillus flavus) | MIC (Pseudomonas aeruginosa) | MIC (Curvularia lunata [8]) | other results
Cc1ccccc1CN1c2ccccc2C2(Cc3ccccc3C)CCN(S(=O)(=O)c3ccccc3)C12 (stereo unspecified) | 125 µg/mL (≈ 246 µM) | inactive | inactive | 275 | 250 µg/mL (≈ 491 µM) | inactive | 250 µg/mL (≈ 491 µM) | inactive | 125 µg/mL (≈ 246 µM) | 250 µg/mL (≈ 491 µM) | > 80 | 250 µg/mL (≈ 491 µM) | inactive | 250 µg/mL (≈ 491 µM) | inactive | 250 µg/mL (≈ 491 µM) | 250 µg/mL (≈ 491 µM) | inactive | inactive | inhibition (Curvularia lunata [6]): Active
CN1c2ccccc2C2(O)CCCN(C(=O)c3ccccc3)C12 (stereo unspecified) | inactive | inactive | 62.5 µg/mL (≈ 203 µM) | 259 | inactive | 250 µg/mL (≈ 811 µM) | inactive | 250 µg/mL (≈ 811 µM) | inactive | inactive | > 80 | inactive | inactive | inactive | 250 µg/mL (≈ 811 µM) | inactive | inactive | 250 µg/mL (≈ 811 µM) | inactive | 
Cc1ccc(C(=O)N2CCCC3(O)c4ccccc4N(C)C23)cc1 (stereo unspecified) | inactive | inactive | inactive | 2850 | inactive | inactive | inactive | inactive | 250 µg/mL (≈ 775 µM) | inactive | > 80 | inactive | inactive | inactive | inactive | inactive | inactive | 250 µg/mL (≈ 775 µM) | inactive | 
CCCCCCCC(=O)N1CCCC2(O)c3ccccc3N(C)C12 (stereo unspecified) | 250 µg/mL (≈ 756 µM) | inactive | 31.2 µg/mL (≈ 94.6 µM) | 363 | 250 µg/mL (≈ 756 µM) | inactive | 125 µg/mL (≈ 378 µM) | 62.5 µg/mL (≈ 189 µM) | 62.5 µg/mL (≈ 189 µM) | 250 µg/mL (≈ 756 µM) |  | inactive | 125 µg/mL (≈ 378 µM) | 250 µg/mL (≈ 756 µM) | 62.5 µg/mL (≈ 189 µM) | inactive | 125 µg/mL (≈ 378 µM) | 250 µg/mL (≈ 756 µM) | 125 µg/mL (≈ 378 µM) | inhibition at 500 µg/mL (Ralstonia solanacearum [9]): 100%
Cc1cccc(CN2c3ccccc3C3(Cc4cccc(C)c4)CCN(S(=O)(=O)c4ccccc4)C23)c1 (stereo unspecified) | 125 µg/mL (≈ 246 µM) | inactive | inactive | 2810 | 250 µg/mL (≈ 491 µM) | 125 µg/mL (≈ 246 µM) | 250 µg/mL (≈ 491 µM) | inactive | 31.2 µg/mL (≈ 61.4 µM) | 250 µg/mL (≈ 491 µM) | > 80 | 250 µg/mL (≈ 491 µM) | inactive | 250 µg/mL (≈ 491 µM) | 250 µg/mL (≈ 491 µM) | 250 µg/mL (≈ 491 µM) | 250 µg/mL (≈ 491 µM) | 125 µg/mL (≈ 246 µM) | inactive | 
CCC(=O)N1CCCC2(O)c3ccccc3N(C)C12 (stereo unspecified) | inactive | inactive | 31.2 µg/mL (≈ 120 µM) | 0.0384 | inactive | inactive | inactive | inactive | 250 µg/mL (≈ 960 µM) | inactive | > 80 | inactive | inactive | inactive | inactive | inactive | inactive | 250 µg/mL (≈ 960 µM) | inactive | 
CCCCCCCC(=O)N1CCC2(Cc3ccccc3C)c3ccccc3N(Cc3ccccc3C)C12 (stereo unspecified) | 62.5 µg/mL (≈ 126 µM) | 250 µg/mL (≈ 505 µM) | 62.5 µg/mL (≈ 126 µM) | 16500 | 250 µg/mL (≈ 505 µM) | 125 µg/mL (≈ 253 µM) | 125 µg/mL (≈ 253 µM) | 125 µg/mL (≈ 253 µM) | 31.2 µg/mL (≈ 63.2 µM) | 250 µg/mL (≈ 505 µM) |  | 125 µg/mL (≈ 253 µM) | 62.5 µg/mL (≈ 126 µM) | 250 µg/mL (≈ 505 µM) | 125 µg/mL (≈ 253 µM) | 31.2 µg/mL (≈ 63.2 µM) | 250 µg/mL (≈ 505 µM) | 125 µg/mL (≈ 253 µM) | 125 µg/mL (≈ 253 µM) | inhibition at 31.25 µg/mL (Verticillium dahliae [10]): 46.2%; inhibition at 125 µg/mL (Verticillium dahliae [11]): 63.4%; inhibition at 250 µg/mL (Verticillium dahliae [12]): 67.7%; inhibition at 62.5 µg/mL (Verticillium dahliae [13]): 47%
CN1c2ccccc2C2(O)CCCN(C(=O)c3ccc(F)cc3)C12 (stereo unspecified) | inactive | 250 µg/mL (≈ 766 µM) | 125 µg/mL (≈ 383 µM) | 0.306 | inactive | 250 µg/mL (≈ 766 µM) | 250 µg/mL (≈ 766 µM) | 250 µg/mL (≈ 766 µM) | 250 µg/mL (≈ 766 µM) | 250 µg/mL (≈ 766 µM) | > 80 | 250 µg/mL (≈ 766 µM) | inactive | 250 µg/mL (≈ 766 µM) | 250 µg/mL (≈ 766 µM) | inactive | 250 µg/mL (≈ 766 µM) | 250 µg/mL (≈ 766 µM) | 125 µg/mL (≈ 383 µM) | 
CCCCCC(=O)N1CCCC2(O)c3ccccc3N(C)C12 (stereo unspecified) | inactive | inactive | 125 µg/mL (≈ 413 µM) | 7570 | 250 µg/mL (≈ 827 µM) | inactive | 125 µg/mL (≈ 413 µM) | 125 µg/mL (≈ 413 µM) | 125 µg/mL (≈ 413 µM) | 250 µg/mL (≈ 827 µM) | > 80 | 250 µg/mL (≈ 827 µM) | 250 µg/mL (≈ 827 µM) | 250 µg/mL (≈ 827 µM) | 250 µg/mL (≈ 827 µM) | inactive | inactive | 250 µg/mL (≈ 827 µM) | 250 µg/mL (≈ 827 µM) | 
CC(C)C(=O)N1CCCC2(O)c3ccccc3N(C)C12 (stereo unspecified) | inactive | inactive | inactive | 510 | inactive | inactive | inactive | inactive | 250 µg/mL (≈ 911 µM) | inactive | > 80 | inactive | inactive | inactive | inactive | inactive | inactive | 250 µg/mL (≈ 911 µM) | inactive | 
CCCCCCC(=O)N1CCCC2(O)c3ccccc3N(C)C12 (stereo unspecified) | 250 µg/mL (≈ 790 µM) | inactive | 62.5 µg/mL (≈ 198 µM) | 4200 | 250 µg/mL (≈ 790 µM) | 250 µg/mL (≈ 790 µM) | 125 µg/mL (≈ 395 µM) | 62.5 µg/mL (≈ 198 µM) | 62.5 µg/mL (≈ 198 µM) | 250 µg/mL (≈ 790 µM) |  | 250 µg/mL (≈ 790 µM) | 125 µg/mL (≈ 395 µM) | 250 µg/mL (≈ 790 µM) | 125 µg/mL (≈ 395 µM) | inactive | inactive | 250 µg/mL (≈ 790 µM) | 62.5 µg/mL (≈ 198 µM) | inhibition at 250 µg/mL (Curvularia lunata [14]): 43.7%; inhibition at 62.5 µg/mL (Curvularia lunata [15]): 15.5%; inhibition at 125 µg/mL (Curvularia lunata [6]): 76.2%; inhibition at 250 µg/mL (Curvularia lunata [16]): 77.7%; inhibition at 125 µg/mL (Curvularia lunata [17]): 31.3%
CCCCCCCC(=O)N1CCC2(Cc3cccc(C)c3)c3ccccc3N(Cc3cccc(C)c3)C12 (stereo unspecified) | 62.5 µg/mL (≈ 126 µM) | 250 µg/mL (≈ 505 µM) | 62.5 µg/mL (≈ 126 µM) | 87900 | 250 µg/mL (≈ 505 µM) | 125 µg/mL (≈ 253 µM) | 125 µg/mL (≈ 253 µM) | 125 µg/mL (≈ 253 µM) | 62.5 µg/mL (≈ 126 µM) | 250 µg/mL (≈ 505 µM) |  | 125 µg/mL (≈ 253 µM) | 125 µg/mL (≈ 253 µM) | 250 µg/mL (≈ 505 µM) | 250 µg/mL (≈ 505 µM) | 31.2 µg/mL (≈ 63.2 µM) | 250 µg/mL (≈ 505 µM) | 125 µg/mL (≈ 253 µM) | 125 µg/mL (≈ 253 µM) | inhibition at 500 µg/mL (Candida [18]): 87.5%
